Data reported in the supplement of paper PMC10307832.

Experiments:
Assay in all cases: relative viability (nuclei count vs DMSO), 5 days (fraction); higher = more cells survive
Dactolisib + Decitabine = compound: Cn1c(=O)n(-c2ccc(C(C)(C)C#N)cc2)c2c3cc(-c4cnc5ccccc5c4)ccc3ncc21 [Dactolisib] + Nc1ncn([C@H]2C[C@H](O)[C@@H](CO)O2)c(=O)n1 [Decitabine] (partner 2 µM)
How it was run: (§1)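 Relative viability equals treated-well nuclei counts divided by vehicle-well nuclei counts. Counts came from 4× images of lung cancer cell lines grown in 1536-well plates for 5 days after pin-tool dosing on the day after seeding. Dosing used one drug alone or a fixed anchor-drug dose plus five library-drug doses (not always all listed) in √10 steps, and values are medians of duplicate plates.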

Dactolisib + Linsitinib = compound: Cn1c(=O)n(-c2ccc(C(C)(C)C#N)cc2)c2c3cc(-c4cnc5ccccc5c4)ccc3ncc21 [Dactolisib] + C[C@]1(O)C[C@@H](c2nc(-c3ccc4ccc(-c5ccccc5)nc4c3)c3c(N)nccn32)C1 [Linsitinib] (partner 1 µM)
How it was run: as §1

AZ505 + Luminespib = compound: C1CCC(CC1)N(CCNCCC2=C3C(=C(C=C2)O)NC(=O)CO3)C(=O)CCNCCC4=CC(=C(C=C4)Cl)Cl [AZ505] + CCNC(=O)c1noc(-c2cc(C(C)C)c(O)cc2O)c1-c1ccc(CN2CCOCC2)cc1 [Luminespib] (partner 0.01 µM)
How it was run: as §1

Dactolisib + Trametinib = compound: Cn1c(=O)n(-c2ccc(C(C)(C)C#N)cc2)c2c3cc(-c4cnc5ccccc5c4)ccc3ncc21 [Dactolisib] + CC(=O)Nc1cccc(-n2c(=O)n(C3CC3)c(=O)c3c(Nc4ccc(I)cc4F)n(C)c(=O)c(C)c32)c1 [Trametinib] (partner 0.02 µM)
How it was run: as §1

| Cell Line | relative viability (Dactolisib + Decitabine; first compound 0.002 µM) | relative viability (Dactolisib + Decitabine; first compound 0.006325 µM) | relative viability (Dactolisib + Decitabine; first compound 0.02 µM) | relative viability (Dactolisib + Decitabine; first compound 0.06325 µM) | relative viability (Dactolisib + Decitabine; first compound 0.2 µM) | relative viability (Dactolisib + Linsitinib; first compound 0.002 µM) | relative viability (Dactolisib + Linsitinib; first compound 0.006325 µM) | relative viability (Dactolisib + Linsitinib; first compound 0.02 µM) | relative viability (Dactolisib + Linsitinib; first compound 0.06325 µM) | relative viability (Dactolisib + Linsitinib; first compound 0.2 µM) | relative viability (AZ505 + Luminespib; first compound 0.08 µM) | relative viability (AZ505 + Luminespib; first compound 0.253 µM) | relative viability (AZ505 + Luminespib; first compound 0.8 µM) | relative viability (AZ505 + Luminespib; first compound 2.53 µM) | relative viability (AZ505 + Luminespib; first compound 8 µM) | relative viability (Dactolisib + Trametinib; first compound 0.002 µM) | relative viability (Dactolisib + Trametinib; first compound 0.006325 µM) | relative viability (Dactolisib + Trametinib; first compound 0.02 µM) | relative viability (Dactolisib + Trametinib; first compound 0.06325 µM) | relative viability (Dactolisib + Trametinib; first compound 0.2 µM) |
| --- | --- | --- | --- | --- | --- | --- | --- | --- | --- | --- | --- | --- | --- | --- | --- | --- | --- | --- | --- | --- |
| LXF-289 | 0.455 | 0.4 | 0.388 | 0.357 | 0.399 | 0.952 | 0.98 | 0.987 | 0.757 | 0.658 | 0.663 | 0.685 | 0.668 | 0.73 | 0.818 | 0.709 | 0.629 | 0.633 | 0.559 | 0.379 |
| NCI-H23 | 0.295 | 0.296 | 0.316 | 0.263 | 0.234 | 0.553 | 0.598 | 0.368 | 0.243 | 0.287 | 0.214 |  | 0.208 | 0.221 | 0.196 | 0.468 | 0.361 | 0.276 | 0.229 | 0.179 |
| NCI-H322M | 0.759 | 0.712 | 0.631 | 0.661 | 0.608 | 0.939 | 0.826 | 0.84 | 0.586 | 0.442 | 0.931 | 0.84 | 0.798 | 0.819 | 0.918 | 0.583 | 0.561 | 0.447 | 0.436 | 0.44 |
| NCI-H358 | 0.303 | 0.204 | 0.202 | 0.141 | 0.127 | 0.848 | 0.641 | 0.549 | 0.293 | 0.211 | 0.22 | 0.306 | 0.402 |  | 0.584 | 0.123 | 0.149 | 0.124 | 0.104 | 0.106 |
| NCI-H441 | 0.285 | 0.256 | 0.31 | 0.233 | 0.203 | 0.594 | 0.592 | 0.435 | 0.343 | 0.286 | 0.248 | 0.388 | 0.313 | 0.308 | 0.445 | 0.523 | 0.412 | 0.43 | 0.217 | 0.213 |
| NCI-H460 | 0.612 | 0.461 | 0.504 | 0.252 | 0.134 | 0.933 | 0.654 | 0.434 | 0.0937 | 0.0501 | 0.0296 | 0.0436 | 0.0262 | 0.0334 | 0.0373 | 0.2 | 0.0901 | 0.13 | 0.0463 | 0.0358 |
| NCI-H520 | 0.527 | 0.476 | 0.456 | 0.206 | 0.156 | 1.02 | 0.731 | 0.53 | 0.191 | 0.186 | 0.232 | 0.186 | 0.312 | 0.239 | 0.211 | 0.61 | 0.585 | 0.354 | 0.147 | 0.102 |
| NCI-H596 | 1 | 0.965 | 0.814 | 0.718 | 0.523 | 1.18 | 0.935 | 0.924 | 0.523 | 0.387 | 0.928 | 0.917 | 0.976 | 0.992 | 0.965 | 0.776 | 0.7 | 0.496 | 0.491 | 0.298 |
| NCI-H647 | 0.487 | 0.292 | 0.188 | 0.116 | 0.14 | 1.15 | 0.898 | 0.736 | 0.192 | 0.146 | 0.122 | 0.221 | 0.119 | 0.134 | 0.138 | 0.381 | 0.42 | 0.291 | 0.118 | 0.103 |
| NCI-H650 | 0.488 | 0.27 | 0.364 | 0.282 | 0.302 | 1.26 | 0.752 | 0.697 | 0.576 | 0.415 | 0.726 | 0.777 | 0.835 | 0.774 | 0.709 | 1.04 | 0.906 | 0.942 | 0.527 | 0.424 |
| NCI-H661 | 0.574 | 0.532 | 0.501 | 0.346 | 0.324 | 0.453 | 0.454 | 0.505 | 0.223 | 0.23 | 0.879 | 0.928 | 0.909 | 0.914 | 0.928 | 0.552 | 0.483 | 0.486 | 0.336 | 0.337 |
| NCI-H727 |  | 0.986 | 1.01 | 0.465 | 0.496 | 0.271 | 0.317 | 0.266 | 0.213 | 0.37 | 0.319 | 0.336 | 0.328 |  | 0.421 |  | 0.42 | 0.358 | 0.401 | 0.373 |
| NCI-H838 | 0.603 | 0.446 | 0.4 | 0.289 | 0.286 | 0.915 | 0.444 | 0.652 | 0.226 | 0.22 | 0.413 | 0.251 | 0.253 | 0.287 | 0.424 | 0.456 | 0.35 | 0.34 | 0.179 | 0.145 |
| NCI-H1355 | 0.382 | 0.35 | 0.338 | 0.267 | 0.253 | 0.848 | 0.761 | 0.733 | 0.354 | 0.257 | 0.672 | 0.701 | 0.655 | 0.675 | 0.718 | 0.45 | 0.37 | 0.384 | 0.215 | 0.203 |
